Laboratory results taken from publication PMC4664946, “The standalone aminopeptidase PepN catalyzes the maturation of blasticidin S from leucylblasticidin S” (Scientific Reports, 2015).

Experiments:
PepN = molecular target: T1, PepN (Escherichia coli, UniProt P04825); test: HPLC (UV […] nm) of hydrolysis to blasticidin S; assay type: biochemical; settings: 30 °C; 1 μM LBS overnight; pH 5 to 9 tested
T1 sequence (P04825 2-870): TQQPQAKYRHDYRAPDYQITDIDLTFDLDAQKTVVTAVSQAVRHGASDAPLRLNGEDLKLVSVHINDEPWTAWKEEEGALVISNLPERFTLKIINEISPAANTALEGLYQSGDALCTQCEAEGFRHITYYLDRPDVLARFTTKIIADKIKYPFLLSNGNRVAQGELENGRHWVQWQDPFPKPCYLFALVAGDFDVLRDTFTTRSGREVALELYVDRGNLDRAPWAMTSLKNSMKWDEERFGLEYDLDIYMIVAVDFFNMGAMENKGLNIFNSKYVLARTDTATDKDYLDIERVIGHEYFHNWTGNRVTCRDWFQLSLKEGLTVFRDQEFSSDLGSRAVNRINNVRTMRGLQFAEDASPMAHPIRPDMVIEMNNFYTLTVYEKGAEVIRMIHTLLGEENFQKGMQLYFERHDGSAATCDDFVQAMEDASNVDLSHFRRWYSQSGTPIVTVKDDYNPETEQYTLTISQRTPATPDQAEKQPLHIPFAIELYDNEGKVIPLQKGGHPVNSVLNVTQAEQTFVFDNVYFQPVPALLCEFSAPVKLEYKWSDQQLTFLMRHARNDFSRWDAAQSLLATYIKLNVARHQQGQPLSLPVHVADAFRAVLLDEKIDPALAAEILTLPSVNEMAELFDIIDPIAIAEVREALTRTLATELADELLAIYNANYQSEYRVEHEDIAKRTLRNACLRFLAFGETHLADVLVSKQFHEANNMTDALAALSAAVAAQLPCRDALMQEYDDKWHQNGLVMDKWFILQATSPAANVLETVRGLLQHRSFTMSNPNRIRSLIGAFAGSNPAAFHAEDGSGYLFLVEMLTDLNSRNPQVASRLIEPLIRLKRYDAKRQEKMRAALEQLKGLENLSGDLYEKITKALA

PepN1 = molecular target: T2, PepN1 (Streptomyces lividans, UniProt Q11010); test: HPLC (UV […] nm) of hydrolysis to blasticidin S; assay type: biochemical; settings: pH 5 to 9 tested; 30 °C; hydrolysis of the beta-amide bond to leucine
T2 construct: gene pepN; closely located to PepN2 gene
T2 sequence (Q11010 1-857): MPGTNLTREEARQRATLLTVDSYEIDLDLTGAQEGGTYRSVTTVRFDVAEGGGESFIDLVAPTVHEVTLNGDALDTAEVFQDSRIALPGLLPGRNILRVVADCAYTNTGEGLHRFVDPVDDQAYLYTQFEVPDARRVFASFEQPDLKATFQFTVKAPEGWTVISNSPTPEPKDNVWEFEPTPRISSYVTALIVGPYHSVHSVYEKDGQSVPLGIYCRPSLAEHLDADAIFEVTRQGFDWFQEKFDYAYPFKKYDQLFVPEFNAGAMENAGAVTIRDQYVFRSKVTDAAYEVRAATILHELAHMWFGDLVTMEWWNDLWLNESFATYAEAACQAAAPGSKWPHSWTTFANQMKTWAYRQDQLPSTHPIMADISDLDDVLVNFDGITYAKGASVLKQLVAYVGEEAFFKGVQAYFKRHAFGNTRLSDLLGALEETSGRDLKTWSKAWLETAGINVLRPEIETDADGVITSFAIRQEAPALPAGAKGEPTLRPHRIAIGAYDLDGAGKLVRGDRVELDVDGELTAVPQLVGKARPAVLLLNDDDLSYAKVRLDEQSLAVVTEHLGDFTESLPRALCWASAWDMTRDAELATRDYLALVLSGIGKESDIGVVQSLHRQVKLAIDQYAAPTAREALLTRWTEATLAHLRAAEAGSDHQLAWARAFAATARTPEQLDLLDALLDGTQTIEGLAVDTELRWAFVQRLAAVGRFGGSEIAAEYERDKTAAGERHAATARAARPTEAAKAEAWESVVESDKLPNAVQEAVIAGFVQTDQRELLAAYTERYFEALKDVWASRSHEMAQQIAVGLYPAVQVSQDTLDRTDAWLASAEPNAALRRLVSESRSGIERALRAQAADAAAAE

CC(C)C[C@H](N)C(=O)N[C@@H](CCN(C)C(=N)N)CC(=O)N[C@H]1C=C[C@H](n2ccc(N)nc2=O)O[C@@H]1C(=O)O [LBS, leucylblasticidin S]
HPLC (UV 272 nm) of hydrolysis to blasticidin S (PepN): PepN and PepN1 exhibited similar LBS hydrolyzing efficiency | HPLC (UV 272 nm) of hydrolysis to blasticidin S (PepN1): PepN and PepN1 exhibited similar LBS hydrolyzing efficiency
